# From patent publication US20190077856A1, “METHOD OF TREATING DISEASES USING KINASE MODULATORS” (Memorial Sloan Kettering Cancer Center, priority 2016, published 2019)
# How the values were obtained:
# PC9 = experiment: Cell surface HLA-A by flow cytometry (BB7) after 72 hours with inhibitor; format: cell-based, human; conditions: PC9, activating EGFR mutation (del E746-A750)
# [1] = system: NSCLC cell lines H827, H1975, H1299, A549; experiment: Surface HLA-ABC (MHC-I) on panel of NSCLC cell lines; format: cell-based, human; conditions: for surface MHC-I: cell lines that had the sensitizing mutation; for sensitivity to up-regulating surface MHC-I: cell lines with downstream activating RAS mutations
# From the text: (§1) 1% DMSO was used as a vehicle control. […] Use of ESK antibody to a peptide derived from the oncoprotein WT1 that is presented on HLA-A0201. […] PRAME is a TCRm antibody against an epitope of PRAME tumor antigen presented on HLA-A0201 on SKMEL5. Experimental setup was similar to FIG. 2A. […] FIG. 2D: Use of EGFRi erlotinib and afatanib, along with MEKi trametinib on H827 (EGFR E746del-A750 mutation), H1975 (L858R/T790M), H1299 (EGFR wt, NRAS Q61K), and A549 (EGFR wt/KRAS G12S) to alter surface HLA-ABC levels. Student's t-test was done to compare each treatment to vehicle control. *P values annotated as in FIG. 1E. […] FIG. 2F: H1299 cells were transduced with retroviral vectors expressing EGFR L858R and were analyzed for surface pan HLA-ABC using W6/32. […] The NRAS Q61K mutation was introduced into H827 and cells were treated with EGFRi or MEKi as done in FIG. 2G.
# (§2) Small molecule inhibitor studies: Compounds were obtained from SelleckChem (Houston, Tx. USA). Drugs were used at sub-cytostatic doses by titration using the Cell Titer Glo assay (Promega). All drugs were used in vitro at indicated doses in 1% dimethyl sulfoxide (DMSO).
# The mechanism by which the MAP kinase pathway suppresses levels of HLA-A is unknown. Given that many cancers have activating mutations in specific genes in the MAP kinase pathway, inhibition of the identified hits was investigated in cell lines harboring mutations in EGFR, or downstream in Ras. A panel of NSCLC cell lines with activating mutations in EGFR, such as the delE746-A750 in H827, or L858R/T790M mutation in H1975, was utilized. The delE746-A750 confers sensitivity to erlotinib, whereas the T790M confers resistance to erlotinib and other first generation EGFR inhibitors, but is sensitive to afatanib (Cross et al., 2014, Cancer Discov 4(9):1046-61). EGFR wild type NSCLC lines with downstream mutations, such as activating NRAS Q61K in H1299 or KRAS G12S in A549, were also utilized.
# Meso34 [2] = experiment: Cell surface HLA-A by flow cytometry (BB7) after 72 hours with inhibitor; format: cell-based, human; conditions: Meso34 without an EGFR mutation, same dose
# JMN [3] = experiment: Cell surface HLA-A / HLA-ABC by flow cytometry (BB7, W6/32) after 72 hours; format: cell-based, human
# From the text: 1% DMSO was used as a vehicle control. […] Experimental setup was similar to FIG. 2A.
# HLA-A and B2M protein = conditions: erlotinib (EGFRi), 72 hours
# From the text: The HLA-A and B2M promoter was cloned upstream of the Gaussian Luciferase (GLuc) gene. Secreted embryonic alkaline phosphatase (SEAP) under the CMV promoter was used as a normalization factor.
# H827 = conditions: similar level of suppression of pERK
# From the text: as §1, §2
# pERK = experiment: Titration of MEK inhibition by western blot for pERK and ERK; format: cell-based, human; conditions: JMN and Meso34 cells; time=1 hour
# From the text: (§3) It was hypothesized that the inhibition of the MAP kinase pathway might act on other components of the antigen presentation machinery in addition to MHC-I molecules, thus allowing increased epitope expression in the more abundant cell surface HLA molecules.
# Meso34 [4] = experiment: ADCC assay (51Cr release) with TCR mimic antibody ESKM after trametinib; format: cell-based, human; conditions: 72 hours trametinib, non-cytotoxic dose
# Experimental: (§4) Cells were incubated for 72 hours with either vehicle control or trametinib and subsequently exposed to either isotype antibody or ESKM in ADCC assay. FIG. 3B depicts an ADCC assay on Meso34 (human mesothelioma). The experimental setup was similar to FIG. 3A. FIG. 3C depicts an ADCC assay on SKMEL5 (human melanoma) using TCRm mAb PRAME against the PRAME epitope; the experimental setup was similar to FIG. 3A. FIG. 3D: B16F10 cells were exposed to pmel-1 (gp100) specific TCR T-cells for 24 hours, then killing was assessed using a clonogenic assay described previously (Budhu et al. 2010, J Exp Med 207:223-235)
# (§5) ADCC: The HLA-A*02:01 positive mesothelioma cell lines JMN and Meso34, along with the melanoma cell line SK-MELS were used in the ADCC assay as a target (May et al. 2007, Clin Cancer Res 13:4547-4555) . Antibodies ESKM (Veomett et al., 2014, Clin Cancer Res 20(15):4036-4046), PRAME, or its isotype control hIgG1 at 3 ug/ml were incubated with target cells and fresh healthy donor PBMCs at different effector/target ratios for 6 hours, along with indicated doses of vehicle or trametinib in RPMI (Roswell Park Memorial Institute medium) supplemented with 10% fetal bovine serum (FBS). The supernatant was harvested, and the cytotoxicity was measured by a ^51Cr release assay (Perkin Elmer).
# JMN [5] = experiment: as above; format: cell-based, human; conditions: 72 hours trametinib, non-cytotoxic dose
# Experimental: as §4, §5
# SK-MEL-5 = experiment: ADCC assay (51Cr release) with TCR mimic mAb Pr20m (PRAME) after trametinib; format: cell-based, human
# Experimental: as §4, §5
# JMN [6] = experiment: Time course of MEK inhibition and HLA-A / B2M protein, western blot; format: cell-based, human; conditions: 50 nM trametinib
# Experimental: FIG. 11: JMN was treated with 50 nM trametinib and lysate was analyzed as in FIG. 4C at different time points.
# as §3
compound,measurement,setting,value
CN(C)C/C=C/C(=O)Nc1cc2c(Nc3ccc(F)c(Cl)c3)ncnc2cc1O[C@H]1CCOC1 [afatanib],HLA-A up-regulation response,PC9,responded
same,surface MHC-I,[1],up-regulated
same,sensitivity to up-regulating surface MHC-I,[1],not observed
same,HLA-A up-regulation response,Meso34 [2],did not respond
same,HLA-A up-regulation response,"JMN [3]; 72 hours, BB7 binding",responded
C#Cc1cccc(Nc2ncnc3cc(OCCOC)c(OCCOC)cc23)c1 [erlotinib],HLA-A and B2M protein,HLA-A and B2M protein,dose dependent increase
same,surface MHC-I,[1],up-regulated
same,sensitivity to up-regulating surface MHC-I,[1],not observed
same,surface MHC-I response compared with MEKi by trametinib,H827,responded more strongly
CC(=O)Nc1cccc(-n2c(=O)n(C3CC3)c(=O)c3c(Nc4ccc(I)cc4F)n(C)c(=O)c(C)c32)c1 [trametinib],dose to which cells were sensitive (pERK inhibition),pERK,less than 10 nM
same,cytotoxicity of ESKM (ADCC),Meso34 [4],increased
same,cytotoxicity of ESKM (ADCC),JMN [5],increased
same,increased cytotoxicity of Pr20m mAb (ADCC),SK-MEL-5,also observed
same,time of maximal increases of HLA-A and B2M,JMN [6],72 h
same,time of maximal inhibition of MEK,JMN [6],3 h
"EGF: epidermal growth factor, EGF protein that turns on EGFR (NSDSECPLSHDGYCLHDGVCMYIEALDKYACNCVVGYIGERCQYRDLKWWELR; Epidermal growth factor; UniProt P01133 971-1023, looked up)",surface HLA-A,JMN [3]; 10 nM EGF for 72 hours,suppressed
same,"surface HLA-A,B,C",JMN [3]; 10 nM EGF for 72 hours,suppressed
